Assays:
[1] = test system: liver cancer BEL-7404 cell line cells; experiment: MTT cell viability assay
[2] = test system: T-helper/inducer lymphocyte subset (CD3/CD4); experiment: FastImmune CD69 T-helper/inducer lymphocyte activation in whole blood cultures; type: cell-based, human; settings: 10 ng/ml
Source text: (§1) In vitro lymphocyte activation represents a standard approach for evaluating cell-mediated responses to a variety of stimuli including immunostimulatory botanical extracts. The FastImmune assay system monitors the expression of the early activation marker CD69 in whole blood after stimulation with extracts.
(§2) T-lymphocyte subsets can be identified and quantified by using fluorochrome-labeled antibody combinations such as CD4/CD69/CD3 and CD8/CD69/CD3. CD4 antigen is expressed on the T-helper/inducer lymphocyte subset (CD3/CD4). CD8 antigen is expressed on the human suppressor/cytotoxic T-lymphocyte subset (CD3/CD8). Once activated both CD4 and CD8 positive T cells express CD69.
(§3) Blood samples were collected from healthy volunteers and 250 μl blood sample were incubated in 48-well plates with increasing concentrations of compound along with appropriate positive controls (recommended by Becton Dickinson Biosciences, CA) for each subset. CD2/CD2R and Phorbol ester (PMA) were used as controls for T-lymphocyte activation studies. […] T2CA, a characterized polysaccharide complex evaluated in these assays was also used as a control. The blood cultures were incubated at 37° C. in a CO2 incubator for 24 h. […] The percentage of activated T-cell subsets, B-cells and NK-cells and the percentage increase over untreated control were calculated and plotted against compound concentrations.

[3] = test system: suppressor/cytotoxic T-lymphocyte subset (CD3/CD8); experiment: FastImmune CD69 T-cytotoxic/suppressor lymphocyte activation in whole blood cultures; type: cell-based, human; settings: 10 ng/ml
Source text: as §1, §2, §3

[4] = increase over untreated control

SMILES	cell growth inhibition ([1]; 10 μg/ml of HNK, 72 hour treatment, BEL-7404 cells) [%]	inhibition ([1]; 5 mcg/ml of HNK alone, BEL-7404 cells, FIG. 1)	cytotoxicity on BEL-7404 cells (in words) ([1]; 72 hour treatment, single agents)	T-helper/inducer Lymphocyte Activation, Activation (%) ([2]; 24 h blood culture)	T-helper/inducer Lymphocyte Activation, % Increase [2, 4] [%]	T-cytotoxic/suppressor Lymphocyte Activation, Activation (%) ([3]; 24 h blood culture)	T-cytotoxic/suppressor Lymphocyte Activation, % Increase [3, 4] [%]
C=CCc1ccc(O)c(-c2ccc(O)c(CC=C)c2)c1 [HNK, honokiol]	68.7	around 25%	cytotoxicity on BEL-7404 cells in a dose dependent manner	–	–	–	–
CCCCCCCCCCCCCC(=O)O[C@@H]1[C@@H](C)[C@@]2(O)[C@@H](C=C(CO)C[C@]3(O)C(=O)C(C)=C[C@@H]23)[C@@H]2C(C)(C)[C@]12OC(C)=O [PMA, Phorbol ester]	–	–	–	5.93	120.86	5.68	54.45

Source: patent US8916541B2, “Synergistic combination of honokiol and modified citrus pectin in cancer therapy” (Better Health Publishing, Inc., priority 2011, dated 2014)
